The values that follow come from ChEMBL document CHEMBL1154712, “Synthesis and cytotoxic activity of psorospermin and acronycine analogues in the 3-propyloxy-acridin-9(10H)-one and -benzo[b]acridin-125H-one series” (Eur J Med Chem, 2010).

One test has as its system L1210. Briefly: Cytotoxicity against mouse L1210 cells after 48 hrs by microculture tetrazolium assay. The class given is functional, cell-based. Particulars: L1210, 48 h.
A short description of test [1]: Cytotoxicity against human KB3-1 cells after 96 hrs by microculture tetrazolium assay. Particulars: KB 3-1, 96 h. The class given is functional, cell-based.

For `C=CCOc1cc(OC)c2c(=O)c3ccccc3n(C)c2c1`, the IC50 (usually the point on the concentration scale where inhibition reaches its midpoint) in the test with L1210 came to 13.4 µM; in test [1], 10.4 µM.

With `C=CCOc1cc(OC)c2c(=O)c3cc4ccccc4cc3n(C)c2c1`, the IC50 in the test on L1210 was found to be 33 µM; in test [1], 3.7 µM.

For the compound `COc1cc2c(c3c1c(=O)c1ccccc1n3C)C[C@H]([C@@]1(C)CO1)O2` (racemic), the IC50 in test [1] came to 0.06 µM.

As for `COc1cc2c(c3c1c(=O)c1cc4ccccc4cc1n3C)C[C@H]([C@@]1(C)CO1)O2` (racemic), the concentration for half-maximal inhibition (IC50) in the test on L1210 came out at 0.04 µM; in test [1], 0.08 µM.

On to `COc1cc(OCC2COC(=O)O2)cc2c1c(=O)c1cc3ccccc3cc1n2C` (racemic), for which the IC50 worked out at 18.8 µM with L1210 and 23.2 µM in test [1].

Take `COc1cc(OCC(COC(C)=O)OC(C)=O)cc2c1c(=O)c1ccccc1n2C` (racemic): the IC50 was determined as 40.6 µM in the test on L1210 and 37.8 µM in test [1].

In the case of `COc1cc(OCC2CO2)cc2c1c(=O)c1ccccc1n2C` (racemic), the concentration for half-maximal inhibition (IC50) in the test with L1210 stood at 0.09 µM; in test [1], 0.12 µM.

Turning to `COc1cc(OCC(O)COC(C)=O)cc2c1c(=O)c1ccccc1n2C` (racemic), the concentration for half-maximal inhibition (IC50) was 32.4 µM in the test on L1210 and 22.5 µM in test [1].

Consider `COc1cc(OCC2COC(=O)O2)cc2c1c(=O)c1ccccc1n2C` (racemic), for which the values for the IC50 (with L1210; in test [1]) were 37.2 µM and 24.1 µM, respectively.

In the case of `COc1cc(OCC(O)CO)cc2c1c(=O)c1cc3ccccc3cc1n2C` (racemic), the IC50 in the test with L1210 turned out to be 79 µM; in test [1] it was 65 µM.

For `COc1cc(OCC(COC(C)=O)OC(C)=O)cc2c1c(=O)c1cc3ccccc3cc1n2C` (racemic), the IC50 amounted to 3.1 µM with L1210 and 7.9 µM in test [1].

In the case of `COc1cc(OCC2CO2)cc2c1c(=O)c1cc3ccccc3cc1n2C` (racemic), the IC50 in the test on L1210 came to 0.03 µM; in test [1], 0.2 µM.

As for `COc1cc(OCC(O)COC(C)=O)cc2c1c(=O)c1cc3ccccc3cc1n2C` (racemic), the results for the IC50 (in the test on L1210; in test [1]) were 6.2 µM and 5.8 µM, respectively.

Regarding `COc1cc(OCC(O)CO)cc2c1c(=O)c1ccccc1n2C` (racemic), the IC50 in the test with L1210 came to 59.8 µM; in test [1], 47.5 µM.

`COc1cc2c(c3c1c(=O)c1cc4ccccc4cc1n3C)[C@@H](OC(C)=O)[C@@H](OC(C)=O)C(C)(C)O2` (relative stereo) came in with an IC50 in test [1] of 0.09 µM.
